# According to patent publication US20240254140A1, “COMPOUNDS AND THEIR USE IN THE TREATMENT OF BACTERIAL INFECTION” (Hoffmann-La Roche Inc., priority 2021, published 2024):
# Test system: Escherichia coli ATCC 25922
# Test: Minimal Inhibitory Concentration (MIC) determination, broth microdilution
# Format: cell-based
# Conditions: ATCC25922; strain Escherichia coli ATCC 25922; broth microdilution per CLSI M07-A10; 18-24 hours at 35±2° C.; lowest concentration for complete growth inhibition
# Description: Minimal Inhibitory Concentration (MIC) Determination:
# The MIC of antibacterial compounds against multiple species and strains was determined using the broth microdilution method according to M07-A10 Clinical and Laboratory Standards Institute (CLSI) guidelines, using the appropriate broth medium. In short, the compound plates were prepared by dispensing 100 μL of each stock solution in the first well of a 96 well microtiter plate (MTP) at a concentration 100-fold higher than the final concentration desired in broth. Eleven serial 2-fold dilutions of the highest concentration were made in DMSO for new compounds and in water (or appropriate solution) for reference compounds [2]. 1 μL of each well was transferred in a new MTP, which served as the test plate by subsequent inoculation. This bacterial suspension was prepared from strains that were first sub-cultured on agar plates and incubated for 18-24 hours as appropriate. Following incubation, the inoculum was prepared from isolated colonies and adjusted to 0.5 McFarland turbidity standard (1 to 2×10^8 Colony Forming Units (CFU)/mL) in 0.9% saline. The bacterial suspension was then diluted 1:200 in appropriate sterile medium and within 15 minutes 100 μL/well were dispensed. Negative controls (lack of bacterial cells) and growth control wells (lack of compound) were included in all plates. MTPs were incubated for 18-24 hours at 35±2° C. in ambient air. The MIC value of each compound, expressed as μg/mL, was determined as the lowest concentration required for complete growth inhibition (no visible growth). • [1] CLSI (2015) Methods for dilution antimicrobial susceptibility tests for bacteria that grow aerobically; Approved Standard, Tenth Edition. CLSI Document M7-A10 (ISBN 1-56238-987-4). Wayne, PA: Clinical and Laboratory Standards Institute, 19087, USA. • [2] CLSI (2017) Performance Standards for Antimicrobial Susceptibility Testing; Twenty-Fifth Informational Supplement. CLSI Document M100-S27, CLSI, Wayne, Pennsylvania 19087, USA.
# Table 1 provides the Minimal Inhibitory Concentrations (MIC) in micrograms per millilitre of the compounds of present invention obtained against the strain Escherichia coli ATCC 25922.
row,MIC,Compound
1,0.25 µg/mL,"O=C1COc2ncc(N3CC4(CCN(CC5Cc6c(F)cc(NC(=O)[C@@H]7C[C@@H](O)CN7)c(F)c6C5)CC4)OC3=O)nc2N1 (stereo partly drawn) [Example 52, (2S,4R)—N-[4,7-Difluoro-2-[[2-oxo-3-(3-oxo-4H-pyrazino[2,3-b][1,4]oxazin-6-yl)-1-oxa-3,8-diazaspiro[4.5]decan-8-yl]methyl]indan-5-yl]-4-hydroxy-pyrrolidine-2-carboxamide]"
2,0.25 µg/mL,"O=C(O)C(F)(F)F.O=C1COc2ncc(N3CC4(CCN(CC5Cc6cc(NC(=O)[C@]7(CO)CCCN7)cc(F)c6C5)CC4)OC3=O)nc2N1 (stereo partly drawn) [Example 53, (2R)—N-[7-Fluoro-2-[[2-oxo-3-(3-oxo-4H-pyrazino[2,3-b][1,4]oxazin-6-yl)-1-oxa-3,8-diazaspiro[4.5]decan-8-yl]methyl]indan-5-yl]-2-(hydroxymethyl)pyrrolidine-2-carboxamide; 2,2,2-trifluoroacetic Acid]"
3,0.25 µg/mL,"O=C(O)C(F)(F)F.O=C1COc2ncc(N3CC4(CCN(CC5Cc6cc(NC(=O)[C@H]7NCC[C@@H]7O)cc(F)c6C5)CC4)OC3=O)nc2N1 (stereo partly drawn) [Example 54, (2S,3S)—N-[7-Fluoro-2-[[2-oxo-3-(3-oxo-4H-pyrazino[2,3-b][1,4]oxazin-6-yl)-1-oxa-3,8-diazaspiro[4.5]decan-8-yl]methyl]indan-5-yl]-3-hydroxy-pyrrolidine-2-carboxamide; 2,2,2-trifluoroacetic Acid]"
4,0.125 µg/mL,"O=C1COc2ncc(N3CC4(CCN(CC5Cc6cc(NC(=O)[C@H]7C[C@@H](O)CN7)cc(F)c6C5)CC4)OC3=O)nc2N1 (stereo partly drawn) [Example 55, (2R,4R)—N-[7-Fluoro-2-[[2-oxo-3-(3-oxo-4H-pyrazino[2,3-b][1,4]oxazin-6-yl)-1-oxa-3,8-diazaspiro[4.5]decan-8-yl]methyl]indan-5-yl]-4-hydroxy-pyrrolidine-2-carboxamide]"
5,≤ 0.06 µg/mL,"O=C1COc2ncc(N3CC4(CCN(CC5Cc6cc(NC(=O)[C@H]7C[C@H](O)CN7)cc(F)c6C5)CC4)OC3=O)nc2N1 (stereo partly drawn) [Example 56, (2R,4S)—N-[7-Fluoro-2-[[2-oxo-3-(3-oxo-4H-pyrazino[2,3-b][1,4]oxazin-6-yl)-1-oxa-3,8-diazaspiro[4.5]decan-8-yl]methyl]indan-5-yl]-4-hydroxy-pyrrolidine-2-carboxamide]"
6,≤ 0.06 µg/mL,"O=C1COc2ncc(N3CC4(CCN(CC5Cc6cc(NC(=O)[C@@H]7C[C@H](O)CN7)cc(F)c6C5)CC4)OC3=O)nc2N1 (stereo partly drawn) [Example 57, (2S,4S)—N-[7-Fluoro-2-[[2-oxo-3-(3-oxo-4H-pyrazino[2,3-b][1,4]oxazin-6-yl)-1-oxa-3,8-diazaspiro[4.5]decan-8-yl]methyl]indan-5-yl]-4-hydroxy-pyrrolidine-2-carboxamide]"
7,0.25 µg/mL,"C[C@H](C(=O)Nc1cc(F)c2c(c1)CC(CN(C)CCC1CN(c3cnc4c(n3)NC(=O)CO4)C(=O)O1)C2)N(C)C (stereo partly drawn) [Example 58, (2R)-2-(Dimethylamino)-N-[7-fluoro-2-[[methyl-[2-[2-oxo-3-(3-oxo-4H-pyrazino[2,3-b][1,4]oxazin-6-yl)oxazolidin-5-yl]ethyl]amino]methyl]indan-5-yl]propanamide]"
8,≤ 0.06 µg/mL,"N#Cc1cc(NC(=O)[C@@H]2C[C@@H](O)CN2)cc2c1CC(CN1CCC3(CC1)CN(c1cnc4c(n1)NC(=O)CO4)C(=O)O3)C2 (stereo partly drawn) [Example 59, (2S,4R)—N-[7-cyano-2-[[2-oxo-3-(3-oxo-4H-pyrazino[2,3-b][1,4]oxazin-6-yl)-1-oxa-3,8-diazaspiro[4.5]decan-8-yl]methyl]indan-5-yl]-4-hydroxy-pyrrolidine-2-carboxamide]"
9,0.5 µg/mL,"O=C1COc2ncc(N3CC4(CCN(CC5Cc6cc(NC(=O)[C@@H]7C[C@@H](O)CN7)cnc6C5)CC4)OC3=O)nc2N1 (stereo partly drawn) [Example 60, (2S,4R)-4-Hydroxy-N-[6-[[2-oxo-3-(3-oxo-4H-pyrazino[2,3-b][1,4]oxazin-6-yl)-1-oxa-3,8-diazaspiro[4.5]decan-8-yl]methyl]-6,7-dihydro-5H-cyclopenta[b]pyridin-3-yl]pyrrolidine-2-carboxamide]"
10,0.5 µg/mL,"N#Cc1cc(NC(=O)[C@@H]2C[C@@H](O)CN2)cc2c1CC(CNCCC1CN(c3cnc4c(n3)NC(=O)CO4)C(=O)O1)C2 (stereo partly drawn) [Example 61, (2S,4R)—N-[7-Cyano-2-[[2-[2-oxo-3-(3-oxo-4H-pyrazino[2,3-b][1,4]oxazin-6-yl)oxazolidin-5-yl]ethylamino]methyl]indan-5-yl]-4-hydroxy-pyrrolidine-2-carboxamide]"
11,≤ 0.06 µg/mL,"CN1CCC[C@@H]1C(=O)Nc1cc(C#N)c2c(c1)CC(CNCCC1CN(c3cnc4c(n3)NC(=O)CO4)C(=O)O1)C2 (stereo partly drawn) [Example 62, (2R)—N-[7-Cyano-2-[[2-[2-oxo-3-(3-oxo-4H-pyrazino[2,3-b][1,4]oxazin-6-yl)oxazolidin-5-yl]ethylamino]methyl]indan-5-yl]-1-methyl-pyrrolidine-2-carboxamide]"
12,0.25 µg/mL,"CN(CCC1CN(c2cnc3c(n2)NC(=O)CO3)C(=O)O1)CC1Cc2cc(NC(=O)[C@@H]3C[C@@H](O)CN3)cc(F)c2C1 (stereo partly drawn) [Example 63, (2S,4R)—N-[7-Fluoro-2-[[methyl-[2-[2-oxo-3-(3-oxo-4H-pyrazino[2,3-b][1,4]oxazin-6-yl)oxazolidin-5-yl]ethyl]amino]methyl]indan-5-yl]-4-hydroxy-pyrrolidine-2-carboxamide]"
13,0.25 µg/mL,"CN1C[C@H](O)C[C@H]1C(=O)Nc1cc(F)c2c(c1)CC(CN1CCC3(CC1)CN(c1cnc4c(n1)NC(=O)CO4)C(=O)O3)C2 (stereo partly drawn) [Example 64, (2S,4R)—N-[7-Fluoro-2-[[2-oxo-3-(3-oxo-4H-pyrazino[2,3-b][1,4]oxazin-6-yl)-1-oxa-3,8-diazaspiro[4.5]decan-8-yl]methyl]indan-5-yl]-4-hydroxy-1-methyl-pyrrolidine-2-carboxamide]"
14,0.5 µg/mL,"C[C@H](C(=O)Nc1cc(F)c2c(c1)C(O)C(CN1CCC3(CC1)CN(c1cnc4c(n1)NC(=O)CO4)C(=O)O3)C2)N(C)C (stereo partly drawn) [Example 65, (2R)-2-(Dimethylamino)-N-[7-fluoro-3-hydroxy-2-[[2-oxo-3-(3-oxo-4H-pyrazino[2,3-b][1,4]oxazin-6-yl)-1-oxa-3,8-diazaspiro[4.5]decan-8-yl]methyl]indan-5-yl]propanamide]"
15,4 µg/mL,"C[C@H](C(=O)Nc1cc(F)c2c(c1)C(O)C(CNCC[C@@H]1CN(c3cnc4c(n3)NC(=O)CO4)C(=O)O1)C2)N(C)C (stereo partly drawn) [Example 66, (2R)-2-(Dimethylamino)-N-[7-fluoro-3-hydroxy-2-[[2-[(5R)-2-oxo-3-(3-oxo-4H-pyrazino[2,3-b][1,4]oxazin-6-yl)oxazolidin-5-yl]ethylamino]methyl]indan-5-yl]propanamide]"
16,0.5 µg/mL,"C[C@H](C(=O)Nc1cc(F)c2c(c1)C(F)C(CNCC[C@@H]1CN(c3cnc4c(n3)NC(=O)CO4)C(=O)O1)C2)N(C)C (stereo partly drawn) [Example 67, (2R)—N-[3,7-Difluoro-2-[[2-[(5R)-2-oxo-3-(3-oxo-4H-pyrazino[2,3-b][1,4]oxazin-6-yl)oxazolidin-5-yl]ethylamino]methyl]indan-5-yl]-2-(dimethylamino)propanamide]"
17,0.125 µg/mL,"C[C@H](C(=O)Nc1cc(F)c2c(c1)CC(CNCC[C@@H]1CN(c3cnc4c(n3)NC(=O)CO4)C(=O)O1)C2)N(C)C (stereo partly drawn) [Example 70, (2R)-2-(Dimethylamino)-N-[7-fluoro-2-[[2-[(5R)-2-oxo-3-(3-oxo-4H-pyrazino[2,3-b][1,4]oxazin-6-yl)oxazolidin-5-yl]ethylamino]methyl]indan-5-yl]propanamide]"

# Same assay, conditions: strain Escherichia coli ATCC 25922; broth microdilution per CLSI M07-A10; 18-24 hours at 35±2° C.; lowest concentration for complete growth inhibition
row,Escherichia coli growth inhibition MIC,Compound
1,0.125 µg/mL,"C[C@H](C(=O)Nc1cc(F)c2c(c1)CC(CNCC[C@@H]1CN(c3cnc4c(n3)NC(=O)CO4)C(=O)O1)C2)N(C)C (stereo partly drawn) [Example 71, (2R)-2-(Dimethylamino)-N-[7-fluoro-2-[[2-[(5R)-2-oxo-3-(3-oxo-4H-pyrazino[2,3-b][1,4]oxazin-6-yl)oxazolidin-5-yl]ethylamino]methyl]indan-5-yl]propanamide]"
